# Tests used:
# [1] = tested on: isolated ventricular myocytes from DOCA-salt and sham mice; test: Calcium transient measurements (Fura-2AM) in isolated cardiomyocytes; type: cell-based, mouse; details: 10 μM ranolazine
# Method: Cell shortening and calcium transient measurements: The mechanical properties of the cardiomyocytes were assessed using an IonOptix Myocam System (Ionoptix Inc., Milton, Mass.). Unloaded cardiomyocytes were placed on a glass slide and allowed to adhere for 10 min. Cardiomyocytes were then imaged with an inverted microscope and perfused with a Tyrode's buffer containing 1.2 mmol/L calcium at room temperature. Cardiomyocytes were paced at 0.5 Hz for 10 ms duration, and sarcomere shortening and relengthening were assessed using the following indices: peak fractional shortening (FS), time to 90% peak shortening, and τ, the relaxation time constant (a0+[…]^t/τ, t=time). […] For calcium transient measurements, cardiomyocytes were loaded with 1 μmol/L Fura 2-AM for 10 min at room temperature, and fluorescence measurements were recorded with a dual-excitation fluorescence photomultiplier system (IonOptix). […] The emitted fluorescence was detected at 510 nm. To take into account any inference from background fluorescence, the background fluorescence for each cardiomyocyte was determined by moving the cardiomyocyte out of the view and recording the fluorescence from the bath solution alone. The mechanical properties of the cardiomyocytes were assessed using an IonOptix Myocam System (Ionoptix Inc., Milton, Mass.). […] The emitted fluorescence was detected at 510 nm. […]
# [2] = tested on: myofilaments of skinned left ventricular papillary fiber bundles; test: Simultaneous tension and ATPase rate in skinned fiber bundles (second series); type: biochemical, mouse; details: ranolazine 15 min; for Maximum ATPase: 20° C.; for Ktr, the rate constant for force redevelopment: in s-1 (unit assumed)
# Method: We measured myofilament response to Ca^2+ under two experimental conditions as described in detail below. In a first series of experiments the skinned fiber bundles were mounted in a force measuring apparatus and sarcomere length (SL) was adjusted to 2.2 μm using a laser diffraction pattern and width and thickness were determined for calculation of cross-sectional area. Force was measured over a range of pCa values Skinned fiber bundles were treated with 10 μmol/L ranolazine for 15 min prior to evaluation. In a second series of experiments under different experimental conditions, we determined steady-state Mg-ATPase activity, while simultaneously measuring isometric tension in skinned fiber bundles as a function of pCa. In all experiments, skinned fibers were treated with ranolazine or DMSO vehicle for 15 min prior to beginning either tension or tension/ATPase rate measurements. Tension generated was computed from the force/cross-sectional area and data were analyzed in the GraphPad Prism software and fit with a sigmoidal modified Hill equation in order to generate tension-pCa curves, Hill coefficients, and pCa50 (pCa value at half-maximum tension). We also determined cross-bridge kinetics employing a quick release/restretch protocol. The rate constant for force redevelopment, Ktr, provides a measure of the rate of cross-bridge entry into the force generating state. In all experiments, only fiber bundles retaining more than 80% of their initial maximum tension were included in the analysis. We treated the fibers with ranolazine from a DMSO stock solution or DMSO alone added to relaxing solution for 15 min prior to the experimental run. Methods for gel electrophoresis analysis of myofilament protein phosphorylation and oxidative modifications are provided below.
# Studies with detergent extracted (skinned) fiber bundles: Mice were anesthetized with pentobarbital (50 mg/kg IP), and the hearts were rapidly excised and rinsed in a pH 7.0 ice-cold relaxing solution (HR) composed of (in mM) 10 EGTA, 41.89K-Prop, 6.57 MgCl2, 100 BES, 6.22 ATP, 5 Na azide, and 10 creatine phosphate. The solution also contained 1 μg/ml leupeptin, 2.5 μg/ml pepstatin A, and 50 μM phenylmethylsulfonyl fluoride. Left ventricular papillary muscles were dissected and fiber bundles were prepared as previously described (Wolska et al., J. Physiol. 536: 863-870 (2001)). The fiber bundles were extracted overnight in relaxing solution plus 1% Triton X-100 at 4° C.
# In a second series of experiments force and ATPase rate were measured simultaneously using methods and an experimental apparatus previously described (de Tombe et al., Circ Res 76: 734-741 (1995); Wolska et al., Circ Res 84: 745-751 (1999)). The fiber bundles were mounted between a force transducer and displacement motor using aluminum T-clips, and the sarcomere length was set to 2.2 μm using He—Ne laser diffraction (Vahebi et al., Circ Res 96: 740-747 (2005)). The width and diameter were each measured at three points along the fiber bundle. Force per cross-sectional area was used to determine tension. The fiber was contracted initially at a saturating calcium concentration (pCa 4.5) and sarcomere length was again adjusted to 2.2 μm. Sarcomere length remained constant throughout the rest of the experiment.
# ATPase activity was measured at 20° C. as previously described and calibrated with rapid injections of ADP (0.5 nmol) with a motor-controlled syringe (de Tombe et al., 1990, supra; Wolska et al., 1999, supra). The fiber was placed in relaxing solution for 2 min, then in the preactivation solution for 2-3 min each time before being placed in the activating solution for 1-2 min (until stabilization of force) and then quickly returned to the relaxing solution. Various contraction-relaxation cycles were carried out using different ratios of total calcium concentration to total EGTA concentration. The final contraction was again at a saturating calcium concentration. […]
smiles,measurement,setting,value
COc1ccccc1OCC(O)CN1CCN(CC(=O)Nc2c(C)cccc2C)CC1 (centres unmarked) [ranolazine],Ca2+ transients,[1],did not affect either group
same,Maximum Tension,[2]; DOCA-salt fiber bundles,27.19 ± 0.54 mN/mm^2
same,Passive Tension,[2]; DOCA-salt fiber bundles,0.68 ± 0.40 mN/mm^2
same,Tension Cost ΔATPase/ΔTension,[2]; DOCA-salt fiber bundles,10.8 ± 0.8
same,Maximum ATPase,[2]; DOCA-salt fiber bundles,326.9 ± 8.7 pmol/s/mg
same,"Ktr, the rate constant for force redevelopment",[2]; DOCA-salt fiber bundles,11.0 ± 1.0
same,Maximum Tension,[2]; sham fiber bundles,36.80 ± 0.16 mN/mm^2
same,Passive Tension,[2]; sham fiber bundles,0.55 ± 0.33 mN/mm^2
same,Tension Cost ΔATPase/ΔTension,[2]; sham fiber bundles,7.1 ± 0.4
same,Maximum ATPase,[2]; sham fiber bundles,302.0 ± 9.0 pmol/s/mg
same,"Ktr, the rate constant for force redevelopment",[2]; sham fiber bundles,11.2 ± 0.5

# Source: US20120214818A1, “METHODS OF TREATING DIASTOLIC DYSFUNCTION AND RELATED CONDITIONS” (THE BOARD OF TRUSTEES OF THE UNIVERSITY OF ILLINOIS, priority 2009, published 2012)
